According to paper PMC8221158, “Novel pyrrolizines bearing 3,4,5-trimethoxyphenyl moiety: design, synthesis, molecular docking, and biological evaluation as potential multi-target cytotoxic agents” (Journal of Enzyme Inhibition and Medicinal Chemistry, 2021):

Target: T1, Aurora A (Homo sapiens, UniProt O14965)
T1 sequence (O14965 1-403): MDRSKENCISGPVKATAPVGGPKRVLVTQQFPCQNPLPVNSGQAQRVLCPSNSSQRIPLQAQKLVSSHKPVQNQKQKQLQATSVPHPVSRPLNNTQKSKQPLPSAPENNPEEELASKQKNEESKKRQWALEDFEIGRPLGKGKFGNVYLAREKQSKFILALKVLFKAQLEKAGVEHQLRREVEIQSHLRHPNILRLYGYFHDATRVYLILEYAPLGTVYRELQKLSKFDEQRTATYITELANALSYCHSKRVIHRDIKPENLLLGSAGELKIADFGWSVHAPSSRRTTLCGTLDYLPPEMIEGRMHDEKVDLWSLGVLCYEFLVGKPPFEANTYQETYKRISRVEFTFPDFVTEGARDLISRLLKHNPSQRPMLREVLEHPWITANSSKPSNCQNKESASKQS
Assay: Kinase profiling test
Type: biochemical
Details: stated as inhibition
Experimental: The test was performed using the radiolabeled ATP determination method (KINEXUS Bioinformatics Corporation, Vancouver, Canada). The test was performed following the previous reports[13]^,[20].
The three compounds were tested at the same concentration (10 μM) against the same 20 kinases used in the previous report. The test was performed by KINEXUS Bioinformatics Corporation (Vancouver, Canada), following previous reports[13]^,[20].

SMILES: COc1cc(C(=O)Nc2c(C#N)c3n(c2C(=O)Nc2ccc(Cl)cc2)CCC3)cc(OC)c1OC [16d, N-(4-Chlorophenyl)-7-cyano-6-(3,4,5-trimethoxybenzamido) -2,3-dihydro-1H-pyrrolizine-5-carboxamide]
- inhibition at 10 µM: 14%
